Experimental data as given in US12319655B2, “RAF kinase inhibitors and methods of use thereof” (Deciphera Pharmaceuticals, LLC, priority 2021, dated 2025).
Read-outs that look alike come from different tables or passages of the source.

Experiments:
[1] = molecular target: A-Raf kinase (SEQ. ID No: 1) (Homo sapiens (Human), UniProt P10398, Y301D/Y302D); assay: Biochemical Assay for A-Raf (1); details: Table J
Procedure: Biochemical Assay for A-Raf (1)
(§1) Activity of A-Raf kinase (SEQ. ID No: 1) was determined spectroscopically using a coupled pyruvate kinase/lactate dehydrogenase assay that continuously monitors the ATP hydrolysis-dependent oxidation of NADH (e.g., Schindler et al., Science, 2000, 289, 1938-1942). Assays were conducted in 384-well plates (100 μL final volume) using 5.55 nM A-Raf (Sigma), 1.5 units pyruvate kinase, 2.1 units lactate dehydrogenase, 1 mM phosphoenol pyruvate, 0.28 mM NADH, 30.1 nM MEK (SignalChem), and 1 mM ATP in assay buffer (100 mM Tris, pH 7.5, 15 mM MgCl2, 0.5 mM DTT, 0.1% octyl-glucoside, 0.002% (w/v) BSA, and 0.002% Triton X-100). Inhibition of A-Raf was measured by adding serial diluted test compound (final assay concentration of 1% DMSO). A decrease in absorption at 340 nm was monitored continuously for 6 h at 30° C. on a multi-mode microplate reader (BioTek). The reaction rate was calculated using the 4 to 5 h time frame. The reaction rate at each concentration of compound was converted to percent inhibition using controls (i.e., reaction with no test compound and reaction with a known inhibitor) and IC50 values were calculated by fitting a four-parameter sigmoidal curve to the data using Prism (GraphPad software).

[2] = molecular target: B-Raf kinase (SEQ. ID NO: 2) (Homo sapiens (Human), UniProt P15056); assay: Biochemical Assay for B-Raf (1); details: Table J
Procedure: Biochemical Assay for B-Raf (1)
as §1, with “B-Raf” for “A-Raf”, “NO: 2)” for “No: 1)”, “0.13” for “5.55”, “Ph” for “pH”

[3] = molecular target: C-Raf kinase (SEQ. ID NO: 3) (Homo sapiens (Human), UniProt P04049, Y340D/Y341D); assay: Biochemical Assay for C-Raf (1); details: Table J
Procedure: Biochemical Assay for C-Raf (1)
as §1, with “C-Raf” for “A-Raf”, “NO: 3)” for “No: 1)”, “0.43” for “5.55”, “Ph” for “pH”

[4] = molecular target: B-Raf (V600E) (SEQ. ID NO: 4) kinase (Homo sapiens (Human), UniProt P15056, V600E); assay: Biochemical Assay for B-Raf (V600E) (1); details: Table J, BRAF V600E
Procedure: Biochemical Assay for B-Raf (V600E) (1)
Activity of B-Raf (V600E) (SEQ. ID NO: 4) kinase was determined spectroscopically using a coupled pyruvate kinase/lactate dehydrogenase assay that continuously monitors the ATP hydrolysis-dependent oxidation of NADH (e.g., Schindler et al., Science, 2000, 289, 1938-1942). Assays were conducted in 384-well plates (100 μL final volume) using 0.03 nM B-Raf (SignalChem), 1.5 units pyruvate kinase, 2.1 units lactate dehydrogenase, 1 mM phosphoenol pyruvate, 0.28 mM NADH, 30.1 nM MEK (SignalChem), and 1 mM ATP in assay buffer (100 mM Tris, Ph 7.5, 15 mM MgCl2, 0.5 mM DTT, 0.1% octyl-glucoside, 0.002% (w/v) BSA, and 0.002% Triton X-100). Inhibition of B-Raf (V600E) was measured by adding serial diluted test compound (final assay concentration of 1% DMSO). A decrease in absorption at 340 nm was monitored continuously for 6 h at 30° C. on a multi-mode microplate reader (BioTek). The reaction rate was calculated using the 3 to 4 h time frame. The reaction rate at each concentration of compound was converted to percent inhibition using controls (i.e., reaction with no test compound and reaction with a known inhibitor) and IC50 values were calculated by fitting a four-parameter sigmoidal curve to the data using Prism (GraphPad software).

A375 cells = assay: A375 Cell Proliferation Assay (1); assay type: cell-based; details: Homo sapiens, A-375
Procedure: A375 Cell Proliferation Assay (1)
A375 cells (catalog (#CRL-1619) are obtained from the American Type Culture Collect (ATTC, Manassas, VA). Briefly, cells were grown in DMEM High Glucose supplemented with 10% characterized fetal bovine serum (Invitrogen, Carlsbad, CA) and 1% Penicillin/Streptomycin/L-Glutamine at 37° C., 5% CO2, and 95% humidity. Cells are expanded until reaching 70-95% confluency at which point they are sub-cultured or harvested for assay use. A serial dilution of test compound is dispensed into a 96-well black clear bottom plate in triplicate. Two thousand five hundred cells are added per well in 200 μL complete growth medium in the 96-well plate. Plates are incubated for 67-72 h at 37° C., 5% CO2, and 95% humidity. At the end of the incubation, 40 μL of a 440 μM solution of resazurin (Sigma, St. Louis, MO) in PBS is added to each well of the plate and plates are incubated for an additional 5-6 h at 37° C., 5% CO2, and 95% humidity. Plates are read on a Synergy2 or equivalent reader (Biotek, Winooski VT) using an excitation of 540 nm and an emission of 600 nm. Data is analyzed using Prism software (GraphPad, San Diego, CA) to calculate IC50 values.

[5] = assay version (1), read-out: ARAF (1) IC50
[6] = assay version (1), read-out: BRAF (1) IC50
[7] = assay version (1), read-out: CRAF (1) IC50
[8] = assay version (1), read-out: BRAF VE (1) IC50
[9] = biochemical assay (1), read-out: ARAF (1)
[10] = biochemical assay (1), read-out: BRAF (1)
[11] = biochemical assay (1), read-out: CRAF (1)
[12] = biochemical assay (1), read-out: BRAF VE (1)

Sequence of C-Raf kinase (SEQ. ID NO: 3) (P04049 307-648 Y340D/Y341D): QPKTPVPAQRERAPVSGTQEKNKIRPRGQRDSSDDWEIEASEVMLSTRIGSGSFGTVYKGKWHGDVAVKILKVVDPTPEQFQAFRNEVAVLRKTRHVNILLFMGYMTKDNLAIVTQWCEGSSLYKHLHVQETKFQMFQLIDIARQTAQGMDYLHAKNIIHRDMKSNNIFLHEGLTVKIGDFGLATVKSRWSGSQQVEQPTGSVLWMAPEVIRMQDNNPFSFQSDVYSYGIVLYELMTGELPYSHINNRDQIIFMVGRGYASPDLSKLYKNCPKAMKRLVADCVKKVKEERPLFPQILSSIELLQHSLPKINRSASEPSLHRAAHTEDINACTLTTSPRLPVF
Sequence of B-Raf kinase (SEQ. ID NO: 2) (P15056 416-766): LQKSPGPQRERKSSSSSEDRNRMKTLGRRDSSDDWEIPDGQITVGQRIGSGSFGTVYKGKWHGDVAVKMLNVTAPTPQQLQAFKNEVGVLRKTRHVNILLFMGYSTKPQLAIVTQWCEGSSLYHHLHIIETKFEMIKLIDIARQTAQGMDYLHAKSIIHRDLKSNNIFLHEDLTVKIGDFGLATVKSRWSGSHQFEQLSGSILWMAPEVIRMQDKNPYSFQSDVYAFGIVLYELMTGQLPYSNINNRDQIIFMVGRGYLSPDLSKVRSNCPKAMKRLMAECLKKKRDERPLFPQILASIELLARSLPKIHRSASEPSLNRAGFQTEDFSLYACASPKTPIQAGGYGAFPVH
Sequence of B-Raf (V600E) (SEQ. ID NO: 4) kinase (P15056 416-766 V600E): as the sequence (P15056 416-766) above, with V185E counted along it
Sequence of A-Raf kinase (SEQ. ID No: 1) (P10398 other isoform, or with tags, fused parts or gaps Y301D (already in the parent)/Y302D (already in the parent)): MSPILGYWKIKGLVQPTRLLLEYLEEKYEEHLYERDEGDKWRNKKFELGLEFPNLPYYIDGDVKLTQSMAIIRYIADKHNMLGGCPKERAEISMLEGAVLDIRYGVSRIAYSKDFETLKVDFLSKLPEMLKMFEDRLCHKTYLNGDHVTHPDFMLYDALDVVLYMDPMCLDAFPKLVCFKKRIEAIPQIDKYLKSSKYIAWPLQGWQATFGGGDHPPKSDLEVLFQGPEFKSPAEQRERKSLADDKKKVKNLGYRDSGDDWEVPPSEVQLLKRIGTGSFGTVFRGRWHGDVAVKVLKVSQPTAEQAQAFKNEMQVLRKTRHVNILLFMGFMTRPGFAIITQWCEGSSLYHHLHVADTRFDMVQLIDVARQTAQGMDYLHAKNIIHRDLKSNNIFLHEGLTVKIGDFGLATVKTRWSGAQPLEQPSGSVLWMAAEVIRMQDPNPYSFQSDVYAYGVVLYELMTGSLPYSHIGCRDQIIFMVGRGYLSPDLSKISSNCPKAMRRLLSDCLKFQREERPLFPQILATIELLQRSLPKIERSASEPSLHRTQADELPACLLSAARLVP

IC50 [1, 5] [µM] | IC50 [2, 6] [µM] | IC50 [3, 7] [µM] | IC50 [4, 8] [µM] | IC50 (A375 cells) [µM] | IC50 [1, 9] [µM] | IC50 [2, 10] [µM] | IC50 [3, 11] [µM] | IC50 [4, 12] [µM] | Structure (SMILES)
1 to 10 | 1 to 10 | 1 to 10 | 0.5 to 1 | – | – | – | – | – | Cc1ncc(NC(=O)C2CCOC2)cc1-c1cccc(-c2cc(NC(=O)C3CC3)ncn2)c1 (stereo not drawn) [Example 352]
1 to 10 | 1 to 10 | 0.5 to 1 | 0.1 to 0.5 | – | – | – | – | – | Cc1ncc(NC(=O)CN2CCOCC2)cc1-c1cccc(-c2cc(NC(=O)C3CC3)ncn2)c1 [Example 353]
1 to 10 | 0.5 to 1 | 0.1 to 0.5 | ≤ 0.1 | – | – | – | – | – | Cc1ncc(NC(=O)CC2CC(F)(F)C2)cc1-c1nccc(-c2ccnc(NC(=O)C3CC3)c2)n1 [Example 354]
1 to 10 | 1 to 10 | 1 to 10 | 1 to 10 | – | – | – | – | – | Cc1ncc(NC(=O)CC2COC2)cc1-c1nccc(-c2ccnc(NC(=O)C3CC3)c2)n1 [Example 355]
1 to 10 | 1 to 10 | 1 to 10 | 0.5 to 1 | – | – | – | – | – | Cc1ncc(NC(=O)CC2COC2)cc1-c1cccc(-c2cc(NC(=O)C3CC3)ncn2)c1 [Example 356]
– | – | – | – | – | 1 to 10 | ≤ 0.1 | ≤ 0.1 | 0.1 to 0.5 | COC(=O)Nc1cc(-c2cnnc(-c3cc(NC(=O)c4ccnc(C(C)(C)C#N)c4)ccc3F)c2)ccn1 [Example 390]
– | – | – | – | – | 1 to 10 | 1 to 10 | 0.5 to 1 | 1 to 10 | Cc1ccc(NC(=O)Cn2cc(C(C)C)nn2)cc1-c1cncc(-c2cc(N)ncn2)c1 [Example 426]

Second part, the compound before the results:

Structure (SMILES) | IC50 [1, 5] [µM] | IC50 [2, 6] [µM] | IC50 [3, 7] [µM] | IC50 [4, 8] [µM] | IC50 (A375 cells) [µM] | IC50 [1, 9] [µM] | IC50 [2, 10] [µM] | IC50 [3, 11] [µM] | IC50 [4, 12] [µM]
CCOc1cc(-c2cc(NC(=O)c3ccnc(C(F)(F)F)c3)c(F)cc2C)cc(-c2ccnc(NC(C)=O)c2)n1 [Example 9] | 1 to 10 | 0.1 to 0.5 | ≤ 0.1 | ≤ 0.1 | 0.1 to 0.5 | – | – | – | –
Cc1ccc(NC(=O)c2ccnc(C(F)(F)F)c2)cc1-c1cccc(-c2ccnc(N)c2)c1 [Example 38] | 1 to 10 | ≤ 0.1 | ≤ 0.1 | ≤ 0.1 | 1 to 10 | – | – | – | –
Cc1ncc(NC(=O)C2CCOC2)cc1-c1nccc(-c2ccnc(NC(=O)C3CC3)c2)n1 (stereo not drawn) [Example 335] | 1 to 10 | 1 to 10 | 1 to 10 | 1 to 10 | – | – | – | – | –
Cc1ncc(NC(=O)C2CCOCC2)cc1-c1ccnc(-c2ccnc(NC(=O)C3CC3)c2)n1 [Example 336] | 1 to 10 | 1 to 10 | 1 to 10 | 0.5 to 1 | – | – | – | – | –
Cc1ncc(NC(=O)C2CCOC2)cc1-c1ccnc(-c2ccnc(NC(=O)C3CC3)c2)n1 (stereo not drawn) [Example 337] | 1 to 10 | 1 to 10 | 1 to 10 | 1 to 10 | – | – | – | – | –
Cc1ncc(NC(=O)C2CCC3(CC2)COC3)cc1-c1nccc(-c2ccnc(NC(=O)C3CC3)c2)n1 [Example 338] | 1 to 10 | 1 to 10 | 1 to 10 | 0.5 to 1 | – | – | – | – | –
Cc1ncc(NC(=O)C2CCOCC2)cc1-c1nccc(-c2ccnc(NC(=O)C3CC3)c2)n1 [Example 339] | 1 to 10 | 1 to 10 | 1 to 10 | 0.1 to 0.5 | – | – | – | – | –
Cc1ccc(NC(=O)C23CCC(C#N)(CC2)CC3)cc1-c1ccnc(-c2ccnc(NC(=O)C3CC3)c2)n1 [Example 340] | 1 to 10 | 1 to 10 | 0.1 to 0.5 | ≤ 0.1 | – | – | – | – | –
Cc1ncc(NC(=O)C23CCC(C#N)(CC2)CC3)cc1-c1cccc(-c2ccnc(NC(=O)C3CC3)c2)n1 [Example 342] | 1 to 10 | 1 to 10 | 1 to 10 | 1 to 10 | – | – | – | – | –
CO[C@H]1CC[C@H](C(=O)Nc2cnc(C)c(-c3cccc(-c4ccnc(NC(=O)C5CC5)c4)n3)c2)CC1 [Example 343] | 1 to 10 | 1 to 10 | 0.5 to 1 | 0.1 to 0.5 | – | – | – | – | –
Cc1ccc(NC(=O)C2CCN(C)C2)cc1-c1cccc(-c2cc(NC(=O)C3CC3)ncn2)c1 (stereo not drawn) [Example 344] | 1 to 10 | 1 to 10 | 0.5 to 1 | 0.1 to 0.5 | – | – | – | – | –
Cc1ccc(NC(=O)C2CCOC2)cc1-c1cccc(-c2cc(NC(=O)C3CC3)ncn2)c1 (stereo not drawn) [Example 345] | 1 to 10 | 1 to 10 | 0.1 to 0.5 | ≤ 0.1 | – | – | – | – | –
Cc1ncc(NC(=O)C2CCOCC2)cc1-c1cccc(-c2cc(NC(=O)C3CC3)ncn2)c1 [Example 349] | 1 to 10 | 1 to 10 | 0.5 to 1 | 0.1 to 0.5 | – | – | – | – | –
Cc1ncc(NC(=O)C2CNCCO2)cc1-c1cccc(-c2cc(NC(=O)C3CC3)ncn2)c1 (stereo not drawn) [Example 350] | 1 to 10 | 1 to 10 | 1 to 10 | 1 to 10 | – | – | – | – | –
Cc1ncc(NC(=O)C2CCN(C)C2)cc1-c1cccc(-c2cc(NC(=O)C3CC3)ncn2)c1 (stereo not drawn) [Example 351] | 1 to 10 | 1 to 10 | 1 to 10 | 0.5 to 1 | – | – | – | – | –
